Earlier results on one compound are cited in patent publication US9133185B2, “Heteroaryl derivatives” (CHIESI FARMACEUTICI S.P.A., priority 2013, dated 2015).

The structures appear in SMILES notation.

Data set [1] relates to smoking model of COPD in mice.
Where [2] appears, read: COPD patients, 500 mg once daily, given over 12 months.
The mark [3] stands for this setting: COPD patients, oral, given over 4 weeks.
Setting [4] is: patients with severe disease who have frequent exacerbations and mucus hypersecretion.

Take `O=C(Nc1c(Cl)cncc1Cl)c1ccc(OC(F)F)c(OCC2CC2)c1` [Roflumilast, roflumilast]: the “lung inflammation and emphysema” value in data set [1] is “inhibits lung inflammation and emphysema”. For the same compound, in the data set with COPD patients (setting [2]), the lung function result is given as “improved lung function in COPD patients to a small extent” and the “reducing exacerbations or improving quality of life” value is given as “little effect”. Besides, in the data set with COPD patients (setting [3]), the “CXCL8 concentrations in sputum” value is “significantly reduces” and the “reduction of the numbers of neutrophils in sputum” value is 36%. Also, in the data set on COPD patients (setting [4]), the “improvement of FEV 1” value was “approximately 50 mL” and the reduction of exacerbation result was “about 15%”.
